Laboratory results: patent publication US20250154161A1, “CRYSTAL FORMS OF THIENOIMIDAZOLE COMPOUND AND PREPARATION METHOD THEREOF” (HANGZHOU SCIWIND BIOSCIENCES CO., LTD., priority 2021, published 2025)

Legend:
GLP-1 receptor = target: T1, GLP-1 receptor (Homo sapiens, UniProt P43220); test: Detection of cell viability in vitro (cAMP detection in GLP-1 cells); format: cell-based
T1 construct: host or cells: 'GLP-1 cell' constructed cell strain
Protocol: OptiPlate-384, White, PerkinElmer (Cat #6007290); 384 well plate for Echo, Labcyte (Cat #P-05525); EnVision, PerkinElmer; Vi-cell counter, Beckman (Cat # Vi-CELL™ XR Cell Viability Analyzer)
The compound was prepared to a working concentration of […] with DMSO. In this test, the use amount of each sample is 5 μL.
Preparation of cAMP detection reagent: 250 μL cAMP-D2, and 250 μL anti-cAMP cryptate reagent were added to 4 mL lysis buffer, then mixing well gently.
The compound to be tested was diluted 3 times at 10 points, the initial concentration was 30 M; and the dilution was completed by Bravo plateform. […]
• 1) A GLP-1 cell cryopreservation tube was quickly thawed in warm water at 37° C. 2) The cell suspension was transferred to a 15 mL Transfer centrifuge tube, then gently rinsing with 10 mL HBSS. • 3) The centrifuge tube was centrifuged at room temperature and 1000 rpm for 1 min. • 4) The supernatant was discarded. • 5) The cells at the bottom were gently dispersed and washed with 10 mL HBSS, then centrifuging to obtain cell sediment, and resuspending the cells with experimental buffer. • 6) Cell density and viability were measured by Vi-cell counter. • 7) GLP-1 cells were diluted with experimental buffer to a concentration of 2.0*10^5/mL. • 8) 100 nL of diluted cell suspension was transferred into OptiPlate-384 plate. • 9) The cells were incubated at room temperature for 30 min. […]

[1] = Study on DMPK in rats (oral, single administration); format: in vivo; conditions: rat, male SD rats, oral 5 mg/kg, plasma
Protocol: Male SD rats were used as test animals. After single administration, the plasma concentration of the compound was measured, and the pharmacokinetic behavior was evaluated.
Two healthy adult male SD rats were selected as the oral group. In the oral group, the vehicle was 20% PEG400/10% solutol/70% water; after the compound to be tested was mixed with the vehicle, 0.5 mg/mL clear solution was prepared by vortex and ultrasound. After oral administration at 5 mg/kg, the whole blood of rat was collected for a certain period of time to prepare plasma; then the drug concentration was analyzed by LC-MS/MS method, and the pharmacokinetic parameters were calculated by Phoenix WinNonlin software (Pharsight, USA).

[2] = Study on DMPK in cynomolgus monkeys (oral, single administration); format: in vivo; conditions: cynomolgus monkey, male cynomolgus monkeys, oral 20 mg/kg, plasma
Protocol: Male cynomolgus monkeys were used as test animals. After single administration, the plasma concentration of the compound was measured, and the pharmacokinetic behavior was evaluated.
Two healthy male cynomolgus monkeys were selected as a group. In the oral group, the vehicle was 20% HP-β-CD aqueous solution; after the compound to be tested was mixed with the vehicle, 4 mg/mL approximately clear solution was prepared by vortex and ultrasound. After oral administration at 20 mg/kg, the whole blood of cynomolgus monkey was collected for a certain period of time to prepare plasma; then the drug concentration was analyzed by LC-MS/MS method, and the pharmacokinetic parameters were calculated by Phoenix WinNonlin software (Pharsight, USA).

[3] = Dynamic vapor sorption (DVS) hygroscopicity study of the crystal forms; format: physicochemical
Protocol: The dynamic vapor sorption (DVS) curve is collected on the DVS Intrinsic plus by SMS (surface measurement systems). The relative humidity at 25° C. is corrected by the deliquescence point of lithium chloride (LiCl), magnesium nitrate [Mg(NO3)2] and potassium chloride (KCl).
The test parameters are as follows:
The hygroscopicity evaluation is classified as follows:
The specific results are shown as the DVS spectrums in FIGS. 27-29.

[4] = Crystal form change after drying the sample open at room temperature overnight; format: physicochemical
Protocol: About 15 mg of crystal Form A of formula (II-1) compound was weighed to add into a 3 mL vial, then adding 1.0 mL MeOH/MTBE (1:1, v/v), stirring at 50° C. for equilibrating about 1 hour, and then filtering to obtain the supernatant.
About 15 mg of crystal Form A of formula (II-1) compound was weighed to add into a 20 mL vial, then dissolving the solids completely with 0.2-1.0 mL MeOH (filtering out the undissolved sample by 0.45 m PTFE filter to obtain clear solution).

[5] = Solid stability of crystal forms under accelerated conditions, XRPD detection; format: physicochemical; conditions: for Crystal form: 75% RH, open, XRPD detection
[6] = read-out: F % (oral bioavailability)

T1 sequence (P43220 24-463): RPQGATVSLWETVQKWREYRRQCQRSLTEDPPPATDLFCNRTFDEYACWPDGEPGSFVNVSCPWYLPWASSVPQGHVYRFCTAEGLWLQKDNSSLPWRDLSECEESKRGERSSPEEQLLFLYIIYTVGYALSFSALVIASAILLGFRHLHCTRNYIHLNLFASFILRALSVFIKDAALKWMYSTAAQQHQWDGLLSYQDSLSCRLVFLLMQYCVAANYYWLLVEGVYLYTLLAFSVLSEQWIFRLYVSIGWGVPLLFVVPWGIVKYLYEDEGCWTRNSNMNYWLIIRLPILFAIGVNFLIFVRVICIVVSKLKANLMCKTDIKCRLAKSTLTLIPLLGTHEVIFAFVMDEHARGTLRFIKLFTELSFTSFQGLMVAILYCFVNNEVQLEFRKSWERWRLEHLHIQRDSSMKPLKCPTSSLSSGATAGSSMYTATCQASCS

For `O=C(O)c1cc2c(nc(CN3CC=C(c4cccc(OCc5ccc(Cl)cc5F)n4)CC3)n2C[C@@H]2CCO2)s1` [compound of formula (I)], the EC50 (GLP-1 receptor; GLP-1 target in HEK293 host cell, cAMP detection, read-out: Human-GLP1, EC50) was 370 pM, the “ability to stimulate GLP-1 receptor” value (GLP-1 receptor; cAMP, GLP-1 cells) was “better ability to stimulate GLP-1 receptor” and the Cmax [1] was 85.5 nM. The AUC(0-t) ([1]; 24-hour oral exposure) was 0.234 µM·h, the bioavailability [1, 6] was 6.6% and the Cmax [2] was 1420 nM. It also gave an AUC(0-t) ([2]; 24-hour oral exposure) of 12.8 µM·h and a bioavailability [2, 6] of 22.1%.
In the case of `O=C(O)c1cc2c(nc(CN3CC=C(c4cccc(OCc5ccc(Cl)cc5F)n4)CC3)n2C[C@@H]2CCO2)s1` [crystal Form A], the “crystal form before and after adsorption and desorption” value [3] is reported as “changes” and the hygroscopic weight gain ([3]; 25° C. and 80% RH) is reported as 2.20%.
With `O=C(O)c1cc2c(nc(CN3CC=C(c4cccc(OCc5ccc(Cl)cc5F)n4)CC3)n2C[C@@H]2CCO2)s1` [crystal Form B] the “crystal form after drying open at room temperature overnight” value [4] was “transformed into crystal Form E”.
With `O=C(O)c1cc2c(nc(CN3CC=C(c4cccc(OCc5ccc(Cl)cc5F)n4)CC3)n2C[C@@H]2CCO2)s1` [crystal Form E] the Crystal form ([5]; 40° C., Day 5) was “crystal Form E”, the Crystal form ([5]; 40° C., Day 15) was “crystal Form E” and the Crystal form ([5]; 40° C., Month 1) was “crystal Form E”. The Crystal form ([5]; 40° C., Month 2) was “crystal Form E”, the Crystal form ([5]; 60° C., Day 5) was “crystal Form E” and the Crystal form ([5]; 60° C., Day 15) was “crystal Form E”. The Crystal form ([5]; 60° C., Month 1) was “crystal Form E”, the Crystal form ([5]; 60° C., Month 2) was “crystal Form E” and the “solid stability (conclusion)” value ([5]; fully exposed, 40° C./75% RH and 60° C./75% RH, XRPD compared with day 0) was “good stability”.
